The text below walks through data of PMC8286840, “Identifying SARS-CoV-2 antiviral compounds by screening for small molecule inhibitors of Nsp3 papain-like protease” (Biochemical Journal, 2021).

Counter-ions that a name gives are not always drawn. Like-named read-outs stand apart in the source and are kept apart here.

In assay [1] the target is T1, SARS-CoV-2 PLpro (nsp3 1564–1878) (Severe acute respiratory syndrome coronavirus 2, UniProt P0DTD1). Kind of assay: biochemical. Also noted: FRET-quenched peptide (Pro3) cleavage by PLpro, 10 min pre-incubation, slope over 20 min, normalised to no-compound control. Conditions: low concentration screen, read-out: % of control remaining.
Assay [2] has as its target T1, SARS-CoV-2 PLpro (nsp3 1564–1878). The experiment in a line: biochemical. Also noted: FRET-quenched peptide (Pro3) cleavage by PLpro, 10 min pre-incubation, slope over 20 min, normalised to no-compound control. The following applies: high concentration screen, read-out: % of control remaining.

With `Cn1c(=O)cc(N2CCC[C@@H](N)C2)n(Cc2ccccc2C#N)c1=O` [Alogliptin (SYR-322)], in assay [1] (Well no.=5179), the remaining activity at 1.25 µM came out at 104%. Besides, the remaining activity at 3.75 µM in assay [2] (Well no.=5179) is 97.5%.
Regarding `C=C1C(=O)[C@]23[C@H](CC[C@@H]1[C@@H]2O)[C@]12CO[C@@]3(O)[C@H](O)[C@H]1C(C)(C)CC[C@@H]2O` [Rubescensin A], in assay [1] (Well no.=3707), the remaining activity at 1.25 µM came to 95.2%. Besides, the remaining activity at 3.75 µM in assay [2] (Well no.=3707) is 93.6%.
For the molecule `OC(CCN1CCCCC1)(c1ccccc1)C1C[C@@H]2C=C[C@H]1C2` (stereo partly drawn) [Biperiden (Hydrochloride)], in assay [1] (Well no.=7434), the remaining activity at 1.25 µM came to 97.8%. Moreover, the remaining activity at 3.75 µM in assay [2] (Well no.=7434) is 100%.
As to `CC(=O)[C@H]1CC[C@H]2[C@@H]3CC[C@H]4C[C@](C)(O)CC[C@]4(C)[C@H]3CC[C@]12C` [Ganaxolone], in assay [1] (Well no.=5901), the remaining activity at 1.25 µM was found to be 96.3%. The remaining activity at 3.75 µM in assay [2] (Well no.=5901) was found to be 94%.
Consider `CNC(=O)[C@H]1O[C@@H](n2cnc3c(NCc4cccc(I)c4)ncnc32)[C@H](O)[C@@H]1O` [IB-MECA], for which the remaining activity at 1.25 µM in assay [1] (Well no.=923) worked out at 94.3%. For the same molecule, the remaining activity at 3.75 µM in assay [2] (Well no.=923) is 99.3%.
`CC[C@H](C)/C=C(C)/C=C/C1=CC2=C(Cl)C(=O)[C@](C)(OC(C)=O)C(=O)C2=CO1` [Sclerotiorin]: in assay [1] (Well no.=3604), the remaining activity at 1.25 µM was 100%. In addition, the remaining activity at 3.75 µM in assay [2] (Well no.=3604) worked out at 98.6%.
Take `OC(CCN1CCCCC1)(c1ccccc1)C1CCCCC1` (stereo not drawn) [Trihexyphenidyl hydrochloride]: the remaining activity at 1.25 µM in assay [1] (Well no.=1187) is 92.8%. In addition, the remaining activity at 3.75 µM in assay [2] (Well no.=1187) worked out at 92%.
Take `CC(C)NCC(O)c1ccc(NS(C)(=O)=O)cc1` (racemic): the remaining activity at 1.25 µM in assay [1] (Well no.=1212) came to 105%. In assay [2] (Well no.=1212), the remaining activity at 3.75 µM came out at 103%.
With `CNc1nccc(-c2cccnc2Oc2cc(C(=O)Nc3cccc(C(F)(F)F)c3)ccc2C)n1` [AMG-Tie2-1], the remaining activity at 1.25 µM in assay [1] (Well no.=2788) amounted to 97.1%. Also, the remaining activity at 3.75 µM in assay [2] (Well no.=2788) came to 94.9%.
With `N[C@@H](CC(=O)O)C(=O)O` [L -Aspartic acid hemimagnesium salt hydrate], in assay [1] (Well no.=5897), the remaining activity at 1.25 µM stood at 103%. Moreover, the remaining activity at 3.75 µM in assay [2] (Well no.=5897) turned out to be 105%.
In the case of `Cc1cc(O)c2c(c1)C(=O)c1cc(O)cc(O)c1C2=O` [Emodin], the remaining activity at 1.25 µM in assay [1] (Well no.=749) came out at 98.9%; in assay [1] (Well no.=3282), 92%. In addition, the remaining activity at 3.75 µM stood at 96.3% in assay [2] (Well no.=749) and 93.4% in assay [2] (Well no.=3282).
As to `C[Se]CC[C@H](N)C(=O)O` [Selenomethionine], the remaining activity at 1.25 µM in assay [1] (Well no.=4141) was 97.8%. Also, in assay [2] (Well no.=4141), the remaining activity at 3.75 µM was 98.7%.
On to `COc1cc(C)c(/C=C/C(C)=C/C=C/C(C)=C/C(=O)O)c(C)c1C` [Acitretin], for which the remaining activity at 1.25 µM in assay [1] (Well no.=1817) was found to be 96.4%. Besides, in assay [2] (Well no.=1817), the remaining activity at 3.75 µM was determined as 96.3%.
As to `NCCc1ccc(O)c(O)c1` [Dopamine (hydrochloride)], in assay [1] (Well no.=6268), the remaining activity at 1.25 µM is 96.9%. The remaining activity at 3.75 µM in assay [2] (Well no.=6268) turned out to be 96.3%.
With `CCCCCCCCCCCCCCCCCC(=O)O` [Octadecanoic acid], the remaining activity at 1.25 µM in assay [1] (Well no.=4314) turned out to be 101%. Besides, the remaining activity at 3.75 µM in assay [2] (Well no.=4314) was found to be 96.8%.
For `N#C/C(=C\c1ccc(O)c(O)c1)C(=O)NCc1ccccc1` [Tyrphostin AG 490], in assay [1] (Well no.=1381), the remaining activity at 1.25 µM was determined as 101%. Further, the remaining activity at 3.75 µM in assay [2] (Well no.=1381) came out at 102%.
For `CCn1cnc2c(Nc3cccc(Cl)c3)nc(N[C@@H]3CCCC[C@@H]3N)nc21` [CGP-74514A hydrochloride], the remaining activity at 1.25 µM in assay [1] (Well no.=268) is 92.8%. In assay [2] (Well no.=268), the remaining activity at 3.75 µM came to 94.1%.
`Fc1ccc(-c2c3cccc(C(F)(F)F)c3nn2Cc2ccc(F)cc2Cl)cc1` [2-(2-chloro-4-fluorobenzyl)-3-(4-fluorophenyl)-7-(trifluoromethyl)-2H-indazole]: the remaining activity at 1.25 µM in assay [1] (Well no.=6061) was found to be 93.7%. Also, in assay [2] (Well no.=6061), the remaining activity at 3.75 µM is 94.4%.
`COc1cccc(OC)c1-c1ccc(C[C@H](NC(=O)c2c(Cl)cccc2Cl)C(=O)O)cc1` [TR-14035]: the remaining activity at 1.25 µM in assay [1] (Well no.=8514) was found to be 96.3%. For the same molecule, in assay [2] (Well no.=8514), the remaining activity at 3.75 µM came to 93.8%.
As for `CCCC(CCC)C(N)=O` [Valpromide], the remaining activity at 1.25 µM in assay [1] (Well no.=5383) was 103%. Moreover, in assay [2] (Well no.=5383), the remaining activity at 3.75 µM amounted to 109%.
Turning to `CN(Cc1ccc(C(C)(C)C)cc1)Cc1cccc2ccccc12` [Butenafine], in assay [1] (Well no.=1876), the remaining activity at 1.25 µM amounted to 97.2%. Moreover, the remaining activity at 3.75 µM in assay [2] (Well no.=1876) amounted to 94.3%.
In the case of `CC(CN)C(=O)O` (stereo not drawn) [3-Amino-2-methylpropanoic acid], the remaining activity at 1.25 µM in assay [1] (Well no.=6787) turned out to be 101%. Also, the remaining activity at 3.75 µM in assay [2] (Well no.=6787) was found to be 97.6%.
Consider `c1ccc(-c2cnc(Nc3ccc(OCCN4CCCC4)cc3)s2)cc1` [Flt-3 Inhibitor III], for which, in assay [1] (Well no.=2421), the remaining activity at 1.25 µM turned out to be 99.3%. Besides, the remaining activity at 3.75 µM in assay [2] (Well no.=2421) came out at 98.8%.
With `CCO[C@H]1CN([C@H]2CC[C@@](O)(c3ccc4c(c3)OCO4)CC2)C[C@@H]1NC(=O)CNC(=O)c1cccc(C(F)(F)F)c1` [INCB3344], the remaining activity at 1.25 µM in assay [1] (Well no.=8605) was determined as 108%. Also, the remaining activity at 3.75 µM in assay [2] (Well no.=8605) amounted to 102%.
In the case of `Oc1ccc2c3c1O[C@H]1c4[nH]c5ccccc5c4C[C@@]4(O)[C@@H](C2)N(CC2CC2)CC[C@]314` [Naltrindole hydrochloride], the remaining activity at 1.25 µM in assay [1] (Well no.=1053) came to 92.8%. Besides, in assay [2] (Well no.=1053), the remaining activity at 3.75 µM came to 93.2%.
Consider `CN1C[C@H](CNC(=O)OCc2ccccc2)C[C@@H]2c3cccc4c3c(cn4C)C[C@H]21` [Metergoline], for which the remaining activity at 1.25 µM in assay [1] (Well no.=782) is 99.4%. For the same molecule, the remaining activity at 3.75 µM in assay [2] (Well no.=782) is 100%.
For the molecule `CC(=O)NS(=O)(=O)c1ccc(NC(=O)c2ccccc2C(=O)O)cc1` [Phthalylsulfacetamide], in assay [1] (Well no.=7356), the remaining activity at 1.25 µM is 105%. In addition, the remaining activity at 3.75 µM in assay [2] (Well no.=7356) stood at 100%.
For `COc1ccc2c3c1O[C@H]1C(=O)CC[C@@]4(O)C(C2)N(CC2CC2)CCC314` (single isomer, unassigned; (-)) [(-)-3-Methoxynaltrexone hydrochloride], the remaining activity at 1.25 µM in assay [1] (Well no.=947) amounted to 98.1%. The remaining activity at 3.75 µM in assay [2] (Well no.=947) stood at 97%.
Consider `COc1ccc(C[C@@H](C)NC[C@H](O)c2ccc(O)c(NC=O)c2)cc1` [Formoterol], for which, in assay [1] (Well no.=473), the remaining activity at 1.25 µM was 101%. In assay [2] (Well no.=473), the remaining activity at 3.75 µM was 99.6%.
For the molecule `CC(=O)N[C@@H](C(=O)O)C(C)(C)SN=O` [S-Nitroso-N-acetylpenicillamine], the remaining activity at 1.25 µM in assay [1] (Well no.=1045) turned out to be 99.8%. For the same molecule, the remaining activity at 3.75 µM in assay [2] (Well no.=1045) came out at 98.3%.
Take `C[N+]1(C)[C@@H]2CC[C@H]1C[C@@H](OC(=O)C(CO)c1ccccc1)C2` (stereo partly drawn) [Atropine methyl nitrate]: the remaining activity at 1.25 µM in assay [1] (Well no.=245) was determined as 99.7%. The remaining activity at 3.75 µM in assay [2] (Well no.=245) came to 100%.
With `O=c1ccn([C@@H]2O[C@H](CO)[C@@H](O)[C@@H]2O)c(=O)[nH]1` [1-_beta-_D-_Arabinofuranosylurac_il], the remaining activity at 1.25 µM in assay [1] (Well no.=8887) was 95.2%. Further, in assay [2] (Well no.=8887), the remaining activity at 3.75 µM amounted to 94.3%.
